Earlier results in patent publication US20170326166A1, “COMPOSITIONS AND METHODS FOR TREATING PITUITARY TUMORS” (University of Virginia Patent Foundation, priority 2014, published 2017).

Tests used:
cancer cells [1] = conditions: cancer cells compared to their normal counterpart cells or other normal cells
cancer cells [2] = conditions: in cancer cells; trapped in the cytosol

| intracellular half-life (cancer cells [2]) | Structure (SMILES) | accumulation in cells (cancer cells [1]) |
| --- | --- | --- |
| – | O=CC[C@@H](O)[C@H](O)[C@H](O)CO [2DG, 2-Deoxy-D-glucose] | accumulates predominantly in cancer cells |
| approximately 50 minutes | O=CC[C@@H](O)[C@H](O)[C@H](O)COP(=O)(O)O [2-deoxyglucose 6-phosphate] | – |
